Measured values: ChEMBL document CHEMBL3507680, “University of Dundee, Gates Library screen for HepG2 cell viability”

Assay: Human HepG2 cell viability assay in 384 well format
Format: toxicity, cell-based
Parameters: dose 125 nL, time 70.5 hour; concentration not given beside the values
Details: HepG2 cells, read-out: Inhibition

Row | SMILES | cytotoxicity at 70.5 h
1 | COC(=O)C1CCN(C(=O)CN2CCN(c3cccc(C)c3)CC2)CC1 | -8.14%
2 | Cc1ccc(S(=O)(=O)N2CCC(S(=O)(=O)c3nncn3C)CC2)cc1C | -6.93%
3 | CCc1noc(C(C)N2CCN(CC)CC2)n1 (configuration not stated) | -8.24%
4 | COCCCNCc1cc(O)c2cc(C)cc(C)c2n1 | -5.24%
5 | CN(C(=O)c1ccc(C2CCCO2)s1)C1CCS(=O)(=O)CC1 (configuration not stated) | 2.73%
6 | Cc1cc(N2CCN(c3ccc(=O)[nH]n3)CC2)nc(-c2ccncc2)n1 | -5.53%
7 | COc1ccc(-c2cc(C(=O)NCCn3ccnc3)n(C)n2)cc1 | 19.2%
8 | COc1ccc(C(=O)NC2CC2)c(OC2CCN(CCCSC)CC2)c1 | -1.03%
9 | O=C(CCNS(=O)(=O)c1ccc(F)c(F)c1)NCc1ccoc1 | -3.45%
10 | Cc1csc(N2CCCN(C(=O)c3csc(C)n3)CC2)n1 | -10.6%
11 | O=c1c2ccccc2nc2n1C(CSc1cccc(C(F)(F)F)c1)CN2 (configuration not stated) | -2.38%
12 | CN(CC1Cc2ccccc2CN1C)c1nc(N)nc2c1CCNCC2 (configuration not stated) | -9.32%
13 | Cc1ncsc1CN1CC2(CCCC2)CC1=O | 0.928%
14 | Cc1cc(N(C)C)nc(C2(C)CCCNC2)n1 (configuration not stated) | 18.9%
15 | COc1cc(C(F)(F)F)sc1C(=O)O | -6.37%
16 | CCOC[C@]12COC[C@H]1CN(Cc1ccc3c(c1)OCO3)C2 | -6.35%
17 | O=C(NC[C@H]1O[C@H](Cc2cc(-c3ccccn3)on2)CC[C@@H]1O)C1CC1 | -7.04%
18 | c1ccc(-n2ccc(CN3CCCCC3Cn3cncn3)n2)cc1 (configuration not stated) | -12.9%
19 | CN1CC2(CCN(Cc3ccoc3)CC2)COc2ccccc2S1(=O)=O | -12.1%
20 | CN(Cc1cnccn1)C(=O)c1ccc(CSc2nnc[nH]2)o1 | -20.7%
21 | CC(C)(C)c1ncc(C(=O)N2CCC(N3CCSCC3)CC2)c(O)n1 | -7.4%
22 | COc1ccc(CN2CCN(C(=O)c3ccc(C)n3C)CC2)cc1 | -11.9%
23 | Cc1cccc(SC2CCN(C(=O)CCCS(N)(=O)=O)CC2)c1 | -6.67%

Row | SMILES | cytotoxicity at 70.5 h
24 | c1cncc(CN2CCCC3(COCCN(c4cnccn4)C3)C2)c1 (configuration not stated) | -5.18%
25 | CC(C)CCNC(=O)C1CCN(c2ccc3nnc(C(C)C)n3n2)CC1 | -30%
26 | O=C(NCc1cccnc1N1CCCCC1)c1ccc2c(c1)OCO2 | -18.5%
27 | CN(C)Cc1nnc(C2CCCN(Cc3ccc(Cl)s3)C2)n1C (configuration not stated) | 5.14%
28 | Cc1ccc(SCC(=O)NS(=O)(=O)c2ccc3c(c2)OCCO3)cc1 | -1.91%
29 | Cc1nc(N2CCCC2)nc2c1CCN(C(=O)c1ccoc1C)CC2 | 1.32%
30 | CC1CN(C(=O)NCc2ccn(C)c2)CCN1CC(F)(F)F (configuration not stated) | 32.3%
31 | Cc1cnc(CN(C)C2CCN(CCc3ccccn3)CC2)cn1 | 14.7%
32 | Cc1cccc(-c2nc(CN3CCOCS3(=O)=O)c(C)o2)c1 | -6.34%
33 | COc1cccc(Nc2nc(N3CCCC3)nc3c2CNCC3)c1 | 43.7%
34 | O=C(c1nn(-c2ccccc2F)cc1O)N1CCCC1 | -2.52%
35 | O=C(c1ccoc1)N1CCCn2cnc(COCC3CC3)c2C1 | -10.8%
36 | CCc1cc(C)c(C(=O)N2CCCC2CC(=O)c2cnn(C)c2)o1 (configuration not stated) | 6.36%
37 | CN1CCN(CCc2ncnn2-c2ccc3c(c2)OCO3)CC1 | 22%
38 | CC(C)c1noc(C2CCCN2S(=O)(=O)Cc2ccc(F)cc2)n1 (configuration not stated) | 0.0647%
39 | CCN(Cc1ccco1)C(=O)Nc1cc(C(F)(F)F)c[nH]c1=O | 11.4%
40 | O=S(=O)(C1CC1)N1CCC2(CC1)COC(COc1ccccn1)C2 (configuration not stated) | -5.06%
41 | CC(=O)NC1CCCN(C(=O)Nc2cccnc2-n2cccn2)C1 (configuration not stated) | -6.08%
42 | c1ccc(CN2Cc3ccnn3CC(COCc3cccnc3)C2)nc1 (configuration not stated) | -9.03%
43 | Cc1csc(N2CCN(CC(=O)NC3CCOCC3)CC2C)n1 (configuration not stated) | -1.39%
44 | O=C(NC[C@]12COC[C@H]1CN(Cc1ccncc1)C2)c1ccno1 | -7.21%
45 | Cn1c(CCN2CCN(c3ccc(O)cc3)CC2)nc2ccccc21 | 14.6%
46 | COc1ccc(-c2ccnc3nc(N4CCCCC4)[nH]c(=O)c23)cc1 | -9.32%

Row | SMILES | cytotoxicity at 70.5 h
47 | CCN(C)C1COC2(CCN(C(=O)c3ccc4[nH]ccc4c3)CC2)C1 (configuration not stated) | -11%
48 | COC(=O)C(C)(C)NC(=O)c1cc2sc(N(C)C)nc2s1 | -13.9%
49 | O=C(CCn1ccc2ccc(Cl)cc21)NCc1ccc(C(=O)O)cc1 | -0.8%
50 | O=C(Cc1ccc2c(c1)OCCO2)N1CCCC(n2cncn2)C1 (configuration not stated) | -9.12%
51 | Cc1cc(C(=O)N2CCc3nc(N4CCCC4)nc(C)c3CC2)c(C)o1 | -7.18%
52 | CC(=O)NCc1cc2n(n1)CCN(Cc1cccc(Cl)c1F)C2 | 36.9%
53 | CSc1ccc(CN(C(=O)c2cc(C)[nH]c(=O)c2)C2CC2)cc1 | 0.291%
54 | O=C(CCn1ccccc1=O)Nc1ccc(I)cc1 | -10.5%
55 | O=C(NCCOc1ccc(Cl)cn1)NCCc1ccccn1 | -3.16%
56 | CC[C@@H]1N(Cc2ccc(C)o2)CCC[C@]12CCC(=O)N2CCOC | 16.8%
57 | O=C(c1ccc2c(c1)OCO2)N1C[C@@H](CN2CCCCC2)[C@@H](CO)C1 | -0.201%
58 | CO[C@H]1CN(C(C)C)C[C@@H]1NC(=O)c1cc(COc2ccccc2)[nH]n1 | -3.71%
59 | O=C1C[C@H]2[C@@H](CCN2C(=O)c2ccoc2)N1CCN1CCOCC1 | -7.58%
60 | Cc1ccsc1CNC(=O)c1ccc(N2CCOC2=O)cc1 | -7.71%
61 | N#CCSCCCN1CCN(C(=O)c2ccccc2F)CC1 | -12.3%
62 | Cc1nccc([C@@H]2C[C@H]3CN(S(=O)(=O)c4ccccc4)C[C@H]3O2)n1 | -2.27%
63 | CC1CCCCN1C(=O)Cn1cc(I)cn1 (configuration not stated) | -1.82%
64 | CC(C)n1cc(S(=O)(=O)N2CCSCC2)cn1 | -4.27%
65 | CN(Cc1cccc2ncccc12)C(=O)CCC(F)(F)F | 27.3%
66 | COCCC1(CO)CCCN(Cc2ccc(C#N)cc2)C1 (configuration not stated) | -1.95%
67 | Cc1noc(C)c1CCC(=O)N1CCOCC1CCc1cnccn1 (configuration not stated) | 14%
68 | COCCN(C)C(=O)Nc1ccc2c(ccn2CCOC)c1 | 32.1%
69 | COc1ccc(OC)c(-n2nnnc2SCC2CCCCO2)c1 (configuration not stated) | -6.66%

Row | SMILES | cytotoxicity at 70.5 h
70 | CCSCC(C)NCc1nncn1C1CCCCC1 (configuration not stated) | -2.76%
71 | O=C(NCc1ccccc1CN1CCC(O)CC1)Nc1cccnc1 | -4.5%
72 | COCCOc1ccc(C(=O)N[C@@H]2CNCCC[C@H]2O)cc1 | -2.53%
73 | O=C(CCn1cccn1)N1CCC(c2nnc(-c3ccccn3)o2)CC1 | 3.01%
74 | CCC1CCCCN1Cc1nc2c(cnn2C)c(=O)[nH]1 (configuration not stated) | -0.935%
75 | CN(C)C(=O)c1nn(C)c2c1CN(Cc1ccc(F)cc1)C2 | -6.32%
76 | COc1ccc2c(c1)CC(NCc1cccc(OCC(N)=O)c1)CC2 (configuration not stated) | -10.5%
77 | Cc1ccc2c(c1)C1(CCN(C(=O)C3CC3)CC1)CC2N1CCOCC1 (configuration not stated) | -3.95%
78 | CC(C)S(=O)(=O)NC(=O)c1cc(-c2cccc(Cl)c2)no1 | -11.8%
79 | CC(C)Cc1nnc(NC(=O)NC(CCO)c2cccs2)s1 (configuration not stated) | -3.34%
80 | O=C(NC[C@H]1OC[C@@H]2CCN(Cc3ccco3)C[C@@H]21)c1ccnnc1 | -1.68%
81 | Cc1cc(C2CCCN2C(=O)NCc2cccnc2)on1 (configuration not stated) | -7.94%
82 | Cc1cc(C)c(CNC(=O)NCC2Cc3ccccc3O2)c(=O)[nH]1 (configuration not stated) | -6.51%
83 | COc1ccc(CN2C[C@H]3CCC[C@@H](CN(C)C)[C@H]3C2)cn1 | -2.35%
84 | COc1ncccc1C(=O)N1CC(c2nc(-c3cccs3)no2)C1 | -5.8%
85 | Cc1ccc(CN2CCc3onc(C(=O)NCCN(C)C)c3C2)o1 | -8.28%
86 | COCCNC(=O)C(C)n1nc(-c2ccco2)cc(N)c1=O (configuration not stated) | 23.7%
87 | NC(=O)c1ccc(CNCC2CCN(CCO)CC2)cc1 | -5.52%
88 | Cc1cc(C)n(C2CN(CC(=O)NC3CCOCC3)C2)n1 | -0.827%
89 | CCOc1ccc2cc(C(=O)NCCNc3ccc(C)nn3)[nH]c2c1 | -8.09%
90 | CCc1nc(C)c(C(=O)NCCNC(=O)c2cccs2)s1 | 15.7%
91 | O=C(c1cnc(C2CC2)s1)N1CCCC1Cn1cccn1 (configuration not stated) | -4.89%
92 | CCNC(=O)c1ncn2c1CN(C)S(=O)(=O)c1ccccc1-2 | -8.36%

Row | SMILES | cytotoxicity at 70.5 h
93 | Cc1cc(CN(C)Cc2csc(-c3ccc(C(C)C)cc3)n2)no1 | 14.4%
94 | CN1CC2(CCN(C(=O)CCCOCc3ccccc3)C2)OC1=O (configuration not stated) | -11.2%
95 | CS(=O)(=O)c1cn[nH]c1C1CCCCN1C(=O)c1cncs1 (configuration not stated) | -6.78%
96 | O=S(=O)(N1CCC(n2cccc2)CC1)N1CCCC1c1ccco1 (configuration not stated) | -10.3%
97 | COCc1nn(C(C)C)c2c1CCN(Cc1ccsc1)C2 | -5.82%
98 | Cc1cccc(CC(=O)N2CCCCC2CN)c1 (configuration not stated) | -3.78%
99 | Cc1nc(CN2C(=O)C[C@@H]3[C@@H]2CCN3CC2CCOCC2)cs1 | 23.6%
100 | O=C(c1ccccn1)N1Cc2nccn2CC(COc2cccnc2)C1 (configuration not stated) | 22.8%
101 | O=C(NC1(C(=O)NCC2CC2)CCCC1)C1Cc2cc(F)ccc2O1 (configuration not stated) | -4.27%
102 | CN(C)Cc1ccnc(NS(=O)(=O)Cc2cccc(F)c2)c1 | 1.98%
103 | CC(C)C(=O)N1CCCC(c2ncncc2-c2ccncc2)C1 (configuration not stated) | 13.6%
104 | C[C@@H]1CN(CCC(=O)N(C)Cc2ccccc2)C[C@@]1(O)C1CCC1 | -7.64%
105 | CNc1cc(CCNS(=O)(=O)c2ccccc2)nc(-c2ccccn2)n1 | -14.6%
106 | CC(NC(=O)NCCCc1n[nH]c(N)c1C#N)c1ccccc1 (configuration not stated) | 26.6%
107 | CC(C)C(=O)NCCNC(=O)CCOc1cccc(F)c1 | -11.3%
108 | COCCC1COC2(CCN(C(=O)Cc3ccccc3)CC2)C1 (configuration not stated) | -13.5%
109 | COc1nn(C)cc1C(=O)NCC(=O)Nc1cccnc1 | -10.6%
110 | COc1cc(N2C[C@H](C(=O)N3CCCC3)[C@@H]3CCO[C@@H]3C2)ncn1 | -0.329%
111 | Cc1ccccc1-c1noc(-c2ccc(NCC3COCCO3)nc2)n1 (configuration not stated) | -3.64%
112 | CC(C)N1CCO[C@H]2CN(C(=O)Cc3cccs3)C[C@H]21 | -3.28%
